The compound `CCc1nc2c(c(=O)n(C)c(=O)n2-c2ccc(Cl)cc2Cl)n1C(CC)CC` [Example 1, 3-(2,4-dichlorophenyl)-8-ethyl-1-methyl-7-(3-pentyl)-3,7-dihydro-1H-purine-2,6-dione] had a melting point of 186 to 187 °C.

For `CCCC(CCC)n1c(CC)nc2c1c(=O)n(C)c(=O)n2-c1ccc(Cl)cc1Cl` [Example 2, 3-(2,4-dichlorophenyl)-8-ethyl-7-(4-heptyl)-1-methyl-3,7-dihydro-1H-purine-2,6-dione], the melting point lay in the range of 185 to 186 °C. `C=CCC(CC=C)n1c(CC)nc2c1c(=O)n(C)c(=O)n2-c1ccc(Cl)cc1Cl` [Example 4, 7-(1-allyl-3-butenyl)-3-(2,4-dichlorophenyl)-8-ethyl-1-methyl-3,7-dihydro-1H-purine-2,6-dione] had a melting point of 145 to 146 °C. Compound `CCC(CC)n1cnc2c1c(=O)n(C)c(=O)n2-c1ccc(Cl)cc1Cl` [Example 5, 3-(2,4-dichlorophenyl)-1-methyl-7-(3-pentyl)-3,7-dihydro-1H-purine-2,6-dione] had a melting point of 158 to 159 °C.

As for `CCc1nc2c(c(=O)n(C)c(=O)n2-c2ccc(Cl)cc2Cl)n1Cc1ccc(OC)cc1` [Example 7, 3-(2,4-dichlorophenyl)-8-ethyl-7-(4-methoxybenzyl)-1-methyl-3,7-dihydro-1H-purine-2,6-dione], the melting point was 209 to 210 °C. `CCCC(CCC)n1c(CC)nc2c1c(=O)n(C)c(=O)n2-c1c(C)cc(C)cc1C` [Example 79, 8-ethyl-7-(4-heptyl)-1-methyl-3-(2,4,6-trimethylphenyl)-3,7-dihydro-1H-purine-2,6-dione] came in with a melting point of 195 to 195.5 °C. The same measure for `CCCC(CCC)n1c(CC)nc2c1c(=O)n(C)c(=O)n2-c1c(OC)ccnc1C` [Example 117, 8-ethyl-7-(4-heptyl)-3-(4-methoxy-2-methylpyrid-3-yl)-1-methyl-3,7-dihydro-1H-purine-2,6-dione]: 124 to 126 °C.

Broadly, the melting point is the temperature, or range, at which the solid turns liquid.

The values are drawn from patent US7098217B2, “3,7-dihydro-purine-2,6-dione derivatives as CRF receptor ligands” (Bristol-Myers Squibb Company, priority 2001, dated 2006).
